Converted amounts (≈) assume the structure as drawn. Where a name gives a salt, the structure may show the parent alone.
Experiments:
[1] = Part A: single-dose IM injection and IV infusion pharmacokinetic study in healthy human subjects; assay type: in vivo; conditions: for AUC(0-inf): AUC0-∞; for half-life: T1/2; for Mean AUC0-∞ / Mean Cmax / Mean Tmax: prodrug
Description: (§1) The pharmacokinetic parameters described herein include area under the plasma concentration-time curve (AUC0-t and AUC0-∞), maximum plasma concentration (Cmax), and time of maximum plasma concentration (Tmax). Terminal elimination half-life (T1/2) may also be provided. The time of maximum concentration, Tmax, is determined as the time corresponding to Cmax. Area under the plasma concentration-time curve up to the time corresponding to the last measurable concentration (AUC0-t) is calculated by numerical integration using the linear trapezoidal rule as follows:
(§2) This was a two-part randomized, single and multiple-dose study to determine pharmacokinetics of ceftaroline fosamil and its the active moiety, ceftaroline, administered parenterally (both intramuscular injection and intravenous injection).
(§3) Part A of the study was a single-dose open-label study. Part B of the study was a multiple-dose study.
Twenty four subjects (six subjects per treatment group) were randomized to one of four treatment groups (A-D): The following doses were administered using vials containing 668 mg ceftaroline fosamil (USAN, molecular formula C22H21N8O8PS4.C2H4O2.H2O, molecular weight 762.75).
(§4) The duration of the study for Treatment Groups E and F was 11 days (Days-1 through 10). Ceftaroline dosing solutions for IM injection were prepared using sterile water for injection.
(§5) The pharmacokinetic parameters for ceftaroline fosamil and ceftaroline were determined using a standard assay. Blood for pharmacokinetic parameter analysis was collected from all subjects as follows: The first blood sample was collected at about 5 minutes (about 0.06 hours) after completion of the administration. Measurement was considered essentially zero prior to this point.
(§6) Part A: 5, 15, and 30 minutes and 1, 2, 4, 6, 8, 12, 18, 24, 36 and 48 hours after injection. In addition, blood were be collected from subjects receiving IV infusion immediately prior to drug injection on day 8 and at 20, 40, 60 (immediately before the end of the study-drug infusion), 65 and 75 minutes, and 1.5, 2, 3, 4, 6, 8, 12, 24, 36 and 48 hours after the start of the drug infusion on Day 8. Part B: Drug injection on Days 1 and 5, at 5, 15, and 30 minutes and 1, 2, 4, 6, […] after the first injection on Day 1, immediately prior to (within 15 minutes) of injection of morning dose on Day 4, at 12 hours post Day 4 morning dose (before evening dose) and at 5, and 30 minutes and 1, 2, 4, 6, 8, 12, 24, 36 and 48 hours after the last (morning) injection on Day 5.

[2] = Part B: multiple-dose IM injection pharmacokinetic study in healthy human subjects; assay type: in vivo
Description: as §1, §2, §3
Eighteen subjects were randomized to one of two treatment groups The IM injection was be administered to the alternating side of the gluteus in each subject.
as §4, §5, §6

[3] = Linear calculated pharmacokinetic parameters following single dose IM injection; assay type: in vivo, human; conditions: for AUC(0-inf) / Cmax / Tmax: human, in vivo, im; for Mean AUC0-∞ / Mean Cmax / Mean Tmax: prodrug, 228 mg/mL, calculated on linear assumptions
From the text: The AUC0-∞ and Cmax values increase or decrease proportionally with the dosage of ceftaroline fosamil. Thus, one skilled in the art with the benefit of this disclosure may readily determine pharmacokinetic parameters for any specific dosage of ceftaroline fosamil (or other prodrugs of ceftaroline) used in a particular dosage form of the invention. The pro-drug in the blood is converted rapidly to the active moiety ceftaroline.
Linear calculated pharmacokinetic parameters for ceftaroline following single dose IM injection of ceftaroline fosamil using vials containing 668 mg ceftaroline fosamil (USAN) at 228 mg/mL, defined per Table 23 are shown in Table 26.
Linear calculated pharmacokinetic parameters for ceftaroline fosamil (INN) following single dose IM injection of ceftaroline fosamil USAN (at concentration of ceftaroline fosamil (anhydrous, acetate free basis of 228 mg/mL, defined per Table 23) are shown in Table 27.

[4] = Aqueous solubility (stated in the description); assay type: physicochemical; conditions: water
[5] = tested on: aerobic and some anaerobic Gram-positive and Gram-negative bacteria; assay: In vitro antimicrobial spectrum (MIC90); assay type: cell-based; conditions: read-out: minimum inhibitory concentration which inhibits 90% of the microbial strains in a given species (MIC90)
[6] = human, in vivo, im, 600 mg, AUC0-t
[7] = prodrug in plasma, Treatment A: 400 mg (INN) IM, 228 mg/mL
[8] = prodrug in plasma, Treatment B: 600 mg (INN) IM, 165 mg/mL
[9] = prodrug in plasma, Treatment C: 600 mg (INN) IM, Day 1, 228 mg/mL
[10] = prodrug in plasma, Treatment C: 600 mg (INN) IV infusion over 60 mins, Day 8
[11] = prodrug in plasma, Treatment D: 1000 mg (INN) IM, 228 mg/mL
[12] = single dose IM ceftaroline fosamil (USAN) 446 mg (≡400 mg INN), 228 mg/mL
[13] = single dose IM ceftaroline fosamil (USAN) 668 mg (≡600 mg INN), 228 mg/mL
[14] = single dose IM ceftaroline fosamil (USAN) 1114 mg (≡1000 mg INN), 228 mg/mL
[15] = prodrug in plasma, Treatment E: 600 mg (INN) IM q12h, Day 5, 228 mg/mL
[16] = prodrug in plasma, Treatment E: 600 mg (INN) IM, Day 1, 228 mg/mL
[17] = single dose IM ceftaroline fosamil (USAN) 223 mg (≡200 mg INN)
[18] = single dose IM ceftaroline fosamil (USAN) 557 mg (≡500 mg INN)
[19] = single dose IM ceftaroline fosamil (USAN) 891 mg (≡800 mg INN)
[20] = single dose IM ceftaroline fosamil (USAN) 1337 mg (≡1200 mg INN)
[21] = single dose IM ceftaroline fosamil (USAN) 2005 mg (≡1800 mg INN)

CCO/N=C(\C(=O)N[C@@H]1C(=O)N2C(C(=O)[O-])=C(Sc3nc(-c4cc[n+](C)cc4)cs3)CS[C@H]12)c1nsc(N)n1 [Ceftaroline, ceftaroline]
AUC greater at 165 mg/mL than at 228 mg/mL ([1]; human, in vivo): ~56%
Bioavailability (absolute) ([1]; human, in vivo): 107 ± 7.1%
Cmax greater at 165 mg/mL than at 228 mg/mL ([1]; human, in vivo): approximately 72%
bioavailability ([1]; human, in vivo, Bioavailability (absolute)): ~100%
Cmax ([1]; human, in vivo, im, 400 mg): 6971 ± 1616 ng/mL
Tmax ([1]; human, in vivo, im, 400 mg): 1.5 (1.0-2.0) h
AUC0-t ([1]; human, in vivo, im, 400 mg, AUC0-t): 35300 ± 6160 ng·h/mL
AUC(0-inf) ([1]; human, in vivo, im, 400 mg): 35600 ± 6130 ng·h/mL
half-life ([1]; human, in vivo, im, 400 mg): 2.36 ± 0.22 h
AUC0-t ([1]; human, in vivo, im, 600 mg): 73439 ± 12080 ng·h/mL
AUC0-∞ ([1]; human, in vivo, im, 600 mg): 73826 ± 12031 ng·h/mL
T1/2 ([1]; human, in vivo, im, 600 mg): 2.27 ± 0.16 h
Tmax ([1]; human, in vivo, im, 600 mg): 2.0 (1.2-2.0) h
AUC0-t [1, 6]: 47500 ± 4010 ng·h/mL
AUC(0-inf) ([1]; human, in vivo, im, 600 mg): 48100 ± 3850 ng·h/mL
half-life ([1]; human, in vivo, im, 600 mg): 2.55 ± 0.49 h
Tmax ([1]; human, in vivo, im, 600 mg, Tmax): 2 h
Cmax ([1]; human, in vivo, im, 1000 mg): 15997 ± 3739 ng/mL
AUC0-t ([1]; human, in vivo, im, 1000 mg, AUC0-t): 110000 ± 31300 ng·h/mL
AUC(0-inf) ([1]; human, in vivo, im, 1000 mg): 110000 ± 31300 ng·h/mL
half-life ([1]; human, in vivo, im, 1000 mg): 2.68 ± 0.31 h
Tmax ([1]; human, in vivo, im, 1000 mg, Tmax): 2 h
Tmax ([1]; human, in vivo, im, Mean Tmax): 2 h
Tmax ([1]; human, in vivo, im, Tmax following IM injection): 1 to 2 h
Tmax ([1]; human, in vivo, iv): 1.0 (1.0-1.0) h
half-life ([1]; human, in vivo, iv): 2.13 ± 0.31 h
Tmax ([1]; human, in vivo, iv, Tmax following IV infusion): ~1 h
AUC0-t ([2]; human, in vivo, im, 600 mg): 65407 ± 11807 ng·h/mL
T1/2 ([2]; human, in vivo, im, 600 mg): 2.51 ± 0.45 h
AUC0-t [2, 6]: 55300 ± 11100 ng·h/mL
half-life ([2]; human, in vivo, im, 600 mg, T1/2): 2.54 ± 0.63 h
AUC(0-inf) ([3]; 223 mg): 17800 ng·h/mL
Cmax ([3]; 223 mg): 3490 ng/mL
Tmax ([3]; 223 mg): 1.5 h
AUC(0-inf) ([3]; 557 mg): 43200 ng·h/mL
Cmax ([3]; 557 mg): 7900 ng/mL
Tmax ([3]; 557 mg): 2 h
AUC(0-inf) ([3]; 891 mg): 81800 ng·h/mL
Cmax ([3]; 891 mg): 12600 ng/mL
Tmax ([3]; 891 mg): 2 h
AUC(0-inf) ([3]; 1337 mg): 133000 ng·h/mL
Cmax ([3]; 1337 mg): 18800 ng/mL
Tmax ([3]; 1337 mg): 2 h
AUC(0-inf) ([3]; 2005 mg): 211000 ng·h/mL
Cmax ([3]; 2005 mg): 28100 ng/mL
Tmax ([3]; 2005 mg): 2 h
solubility [4]: 2000 to 3000 µg/mL (≈ 3.31 to 4.96 mM)
MIC90 [5]: ≤ 2000 µg/mL

CCO/N=C(\C(=O)N[C@@H]1C(=O)N2C(C(=O)[O-])=C(Sc3nc(-c4cc[n+](C)cc4)cs3)CS[C@H]12)c1nsc(NP(=O)(O)O)n1 [Ceftaroline Fosamil (INN), 4-[2-[[(6R,7R)-2-carboxy-7-[[2(Z)-ethoxyimino-[5-(phosphonoamino)-1,2,4-thiadiazol-3-yl]acetyl]amino]-8-oxo-5-thia-1-azabicyclo[4.2.0]oct-2-en-3-yl]thio-4-thiazolyl]-1-methyl-, inner salt]
more bioavailable than an IV solution of the same strength ([1]; 600 mg (INN) IM solution at 165 mg/mL vs IV): over 50%
AUC0-t [1, 7]: 1950 ± 401 ng·h/mL
AUC0-∞ [1, 7]: 2144 ± 421 ng·h/mL
Cmax [1, 7]: 1113 ± 418 ng/mL
T1/2 [1, 7]: 1.21 ± 0.49 h
Tmax [1, 7]: 0.29 h
AUC0-t [1, 8]: 4846 ± 975 ng·h/mL
AUC0-∞ [1, 8]: 5118 ± 985 ng·h/mL
Cmax [1, 8]: 2722 ± 557 ng/mL
T1/2 [1, 8]: 1.06 ± 0.33 h
Tmax [1, 8]: 0.75 h
AUC0-t [1, 9]: 3060 ± 475 ng·h/mL
AUC0-∞ [1, 9]: 3242 ± 486 ng·h/mL
Cmax [1, 9]: 1492 ± 275 ng/mL
T1/2 [1, 9]: 1.57 ± 0.41 h
Tmax [1, 9]: 0.50 h
AUC0-t [1, 10]: 2734 ± 340 ng·h/mL
AUC0-∞ [1, 10]: 2744 ± 344 ng·h/mL
Cmax [1, 10]: 3549 ± 465 ng/mL
T1/2 [1, 10]: 0.07 ± 0.03 h
Tmax [1, 10]: 0.67 h
AUC0-t [1, 11]: 5791 ± 2795 ng·h/mL
AUC0-∞ [1, 11]: 6229 ± 2829 ng·h/mL
Cmax [1, 11]: 2239 ± 657 ng/mL
T1/2 [1, 11]: 1.87 ± 0.90 h
Tmax [1, 11]: 0.38 h
Mean AUC0-∞ [1, 12]: 2144 ng·h/mL
Mean Cmax [1, 12]: 1113 ng/mL
Mean Tmax [1, 12]: 0.29 h
Mean AUC0-∞ [1, 13]: 3242 ng·h/mL
Mean Cmax [1, 13]: 1492 ng/mL
Mean Tmax [1, 13]: 0.5 h
Mean AUC0-∞ [1, 14]: 6229 ng·h/mL
Mean Cmax [1, 14]: 2238 ng/mL
Mean Tmax [1, 14]: 0.5 h
AUC0-t [2, 15]: 4067 ± 782 ng·h/mL
Cmax [2, 15]: 2223 ± 497 ng/mL
T1/2 [2, 15]: 1.11 ± 0.35 h
Tmax [2, 15]: 0.50 h
AUC0-t [2, 16]: 3096 ± 850 ng·h/mL
Cmax [2, 16]: 1575 ± 507 ng/mL
T1/2 [2, 16]: 1.17 ± 0.52 h
Tmax [2, 16]: 0.50 h
Mean AUC0-∞ [3, 17]: 1162 ng·h/mL
Mean Cmax [3, 17]: 484 ng/mL
Mean Tmax [3, 17]: 0.3 h
Mean AUC0-∞ [3, 18]: 2905 ng·h/mL
Mean Cmax [3, 18]: 1210 ng/mL
Mean Tmax [3, 18]: 0.5 h
Mean AUC0-∞ [3, 19]: 4648 ng·h/mL
Mean Cmax [3, 19]: 1936 ng/mL
Mean Tmax [3, 19]: 0.5 h
Mean AUC0-∞ [3, 20]: 6972 ng·h/mL
Mean Cmax [3, 20]: 2904 ng/mL
Mean Tmax [3, 20]: 0.5 h
Mean AUC0-∞ [3, 21]: 10458 ng·h/mL
Mean Cmax [3, 21]: 4356 ng/mL
Mean Tmax [3, 21]: 0.5 h
